According to PMC6304572, “Simultaneous Evaluation of the Influence of Panax ginseng on the Pharmacokinetics of Three Diester Alkaloids after Oral Administration of Aconiti Lateralis Radix in Rats Using UHPLC/QQQ-MS/MS” (Evidence-based Complementary and Alternative Medicine : eCAM, 2018):
Read-outs that look alike come from different tables or passages of the source.

Columns and labels:
[1] = Pharmacokinetics of three diester alkaloids in rat plasma after oral Aconiti Lateralis Radix extract, with or without 7-day P. ginseng pretreatment; assay type: in vivo, Sprague-Dawley rats; conditions: for CL/F / Cmax / Tmax / Vd/F / half-life: Sprague-Dawley, rat, in vivo, po, 1 g/kg; for CL/F / Cmax / Tmax / Vd/F / half-life / AUC(0-t) / AUC(0-∞): oral Aconiti Lateralis Radix extract 1 g/kg on 8th day; for CL/F: read-out: CLz/F (converted); for Cmax: read-out: Cmax; for Tmax: read-out: Tmax; for Vd/F: read-out: Vz/F; for half-life: read-out: t1/2z (converted)
Experimental: Rats were randomly divided into 4 groups: control group, P. ginseng (low, middle, and high) group. 7 days of oral administration of P. ginseng extract was administered at a dosage of 0.1, 1, 10 g/kg for P. ginseng group (low, middle, and high), respectively, once daily. Distilled water was administered at a dosage of 2 ml/kg for control group, simultaneously. On the 8th day, Aconiti Lateralis Radix extracts (1 g/kg) were orally administered to all groups. 0.5 ml plasma samples were collected in 1.5 ml centrifuge tubes (containing heparin sodium) at 10, 30, 60, 90, 120, 240, 480, 720, 1440, and 2880 min. All plasma samples were centrifuged for 15 min at 4000g. The supernatant was separated to another 1.5 ml centrifuge tubes and stored at -20°C.
Liquid-liquid extraction (ethyl acetate) and protein precipitation (50% acetonitrile plus 50% methanol) methods were compared to determine the best method to prepare the plasma sample. Liquid-liquid extraction method was chosen, due to reproducibly high recovery rates. The details of the extraction are as follows: 10 μL carbamazepine (IS) was added to 90 μL plasma, spiked with 400 μL ethyl acetate and the mixture vortexed for 15 seconds. After centrifugation at 12,000g for 10 min, the supernatant was transferred to another 1.5 mL centrifuge tube and dried under a stream of nitrogen at 37°C. The residue was redissolved in 100 μL 50% acetonitrile and centrifuged at 12,000g for 10 min and filtered through a 0.22 μm Micropore membrane. A 5 μL volume of supernatant was injected into LC-MS system for analysis.
Xevo TQ-S (Waters, USA) was utilized for the analysis of all biological samples. Chromatographic separation was conducted on Waters ACQUITY UPLC HSS T3 1.8 μm column (2.1 mm × 100 mm). Column temperature was 45°C and the flow rate was 0.5ml/min. Room temperature was 20 ± 2°C. Phase A consisted of water and 0.1% formic acid (v/v), and phase B consisted of acetonitrile (ACN) 0.1% formic acid (v/v). Column separation was performed by gradient elution: 0-0.5 min, 10% B; 1-2 min, 90% B; 4 min, 10% B.
Electrospray ionization (ESI) and positive ion V mode were used to determine the samples. The main parameters for mass spectrum were set as follows: capillary voltage: 3.5 kv; sample cone: 60 v; source offset: 50 v; source temperature: 150°C; desolvation temperature: 350°C; cone gas flow: 150 L/h; desolvation gas flow: 650 L/h; injection volume: 5 μL.
The data was acquired and analyzed by XEVO-QT-S (Waters). The pharmacokinetic parameters were analyzed by DAS pharmacokinetic program (Version 2.0). SAS statistical software was used to determine the difference between each group. All data was presented as mean ± SD, and P<0.05 was considered statistically significant.

[2] = Stability of the three alkaloids in rat plasma QC samples (4°C, room temperature, freeze-thaw); assay type: in vitro ADME; conditions: for Freeze-thaw Accuracy: freeze-thaw three times; for Room temperature stability (24 h) Accuracy: room temperature (about 25°C)
Experimental: Plasma from rats without any processing was used to evaluate the detection methods. 0.1, 0.25, 0.5, 1, 2.5, 5, 10 ng/ml were chosen to calculate standards curve. 0.1, 0.4, 4, 8 ng/mL were selected as the QC sample (n = 4) with repeated operations used to calculate accuracy and precision of the detection method. The data was acquired after keeping the samples at either +4°C 24 hours or room temperature (about 25°C) for 24 hours as well as using freeze-thaw methods (three times) to evaluate stability. Recovery of the developed methods was calculated by the following formula: recovery = measured value/ theoretical value × 100%.

[3] = P. ginseng-high (10 g/kg oral, 7 days)
[4] = P. ginseng-low (0.1 g/kg oral, 7 days)
[5] = P. ginseng-middle (1 g/kg oral, 7 days)
[6] = control group (distilled water 7 days)

## COC[C@@]12CC[C@H](OC)[C@]34C(C([C@H](OC)[C@H]13)[C@]1(OC(C)=O)[C@H]3[C@@H](OC(=O)c5ccccc5)[C@](O)(C[C@H]34)[C@@H](OC)[C@@H]1O)N(C)C2 [Hypaconitine]
[1]; [3]
  CL/F: 2320 mL/min/kg
  Cmax: 4.87 ± 1.36 ng/mL
  Tmax: 1.83 ± 1.29 h
  Vd/F: 2280 ± 954 L/kg
  half-life: 11.7 ± 4.21 h
  AUC(0-t): 71.75 ± 22.2^∗ μg/L∗h
  AUC(0-∞): 77.26 ± 25.15^∗ μg/L∗h
[1]; [4]
  CL/F: 2380 mL/min/kg
  Cmax: 4.02 ± 2.01 ng/mL
  Tmax: 3.61 ± 3.47 h
  Vd/F: 2020 ± 819 L/kg
  half-life: 9.7 ± 3.55 h
  AUC(0-t): 65.64 ± 13.14 μg/L∗h
  AUC(0-∞): 70.68 ± 8.89^∗ μg/L∗h
[1]; [5]
  CL/F: 2360 mL/min/kg
  Cmax: 5.85 ± 2.71 ng/mL
  Tmax: 2.53 ± 3.01 h
  Vd/F: 1400 ± 272 L/kg
  half-life: 6.97 ± 1.77 h
  AUC(0-t): 70.71 ± 7.55^∗ μg/L∗h
  AUC(0-∞): 71.49 ± 8.07^∗ μg/L∗h
[1]; [6]
  CL/F: 3400 mL/min/kg
  Cmax: 4.63 ± 1.96 ng/mL
  Tmax: 2.67 ± 2.91 h
  Vd/F: 3880 ± 1700 L/kg
  half-life: 14.1 ± 5.41 h
  AUC(0-t): 48.12 ± 24.59 μg/L∗h
  AUC(0-∞): 60.16 ± 28.03 μg/L∗h
[1]; all P. ginseng groups compared to control
  Change of Cmax versus control: did not change
[1]; P. ginseng-high (10 g/kg oral, 7 days), listed as hypaconitine
  AUC(0-t): 71.75 ± 22.2 μg/L∗h
[1]; P. ginseng-middle (1 g/kg oral, 7 days), listed as hypaconitine
  AUC(0-t): 70.71 ± 7.55 μg/L∗h
[2]; QC conc. 0.40 ng/mL
  4°C temperature stability (24 h) Accuracy: 97.44 ± 2.35%
  Freeze-thaw Accuracy: 99.71 ± 2.06%
  Room temperature stability (24 h) Accuracy: 100.49 ± 2.52%
[2]; QC conc. 4.00 ng/mL
  4°C temperature stability (24 h) Accuracy: 104.96 ± 5.49%
  Freeze-thaw Accuracy: 100.26 ± 6.03%
  Room temperature stability (24 h) Accuracy: 98.72 ± 4.30%
[2]; QC conc. 8.00 ng/mL
  4°C temperature stability (24 h) Accuracy: 101.13 ± 4.82%
  Freeze-thaw Accuracy: 102.33 ± 3.19%
  Room temperature stability (24 h) Accuracy: 100.64 ± 3.60%

## CCN1C[C@]2(COC)[C@H](O)C[C@H](OC)[C@@]34[C@@H]5C[C@@]6(O)[C@H](OC(=O)c7ccccc7)[C@@H]5[C@@](OC(C)=O)([C@@H]([C@H](OC)[C@H]23)[C@@H]14)[C@@H](O)[C@@H]6OC [Aconitine]
[1]; [3]
  CL/F: 852 mL/min/kg
  Cmax: 11.5 ± 3.49 ng/mL
  Tmax: 1.33 ± 0.41 h
  Vd/F: 1550 ± 686 L/kg
  half-life: 26.5 ± 23.3 h
  AUC(0-t): 162.98 ± 48.50^∗∗ μg/L∗h
  AUC(0-∞): 228.56 ± 100.03^∗∗ μg/L∗h
[1]; [4]
  CL/F: 2870 mL/min/kg
  Cmax: 5.03 ± 3.02 ng/mL
  Tmax: 4 ± 3.27 h
  Vd/F: 2480 ± 945 L/kg
  half-life: 10.1 ± 3.72 h
  AUC(0-t): 58 ± 13.02 μg/L∗h
  AUC(0-∞): 60.32 ± 12.99 μg/L∗h
[1]; [5]
  CL/F: 2830 mL/min/kg
  Cmax: 5.79 ± 2.8 ng/mL
  Tmax: 2.11 ± 2.97 h
  Vd/F: 1460 ± 190 L/kg
  half-life: 6.14 ± 1.18 h
  AUC(0-t): 61.05 ± 12.82^∗ μg/L∗h
  AUC(0-∞): 61.49 ± 13.16^∗ μg/L∗h
[1]; [6]
  CL/F: 3760 mL/min/kg
  Cmax: 3.88 ± 0.92 ng/mL
  Tmax: 2.67 ± 2.91 h
  Vd/F: 3350 ± 1370 L/kg
  half-life: 10.7 ± 4.78 h
  AUC(0-t): 40.77 ± 9.71 μg/L∗h
  AUC(0-∞): 46.20 ± 9.57 μg/L∗h
[1]; P. ginseng-high (10 g/kg oral, 7 days), listed as aconitine
  AUC(0-t): 162.98 ± 48.50 μg/L∗h
[1]; P. ginseng-middle (1 g/kg oral, 7 days), listed as aconitine
  AUC(0-t): 61.05 ± 12.82 μg/L∗h
[2]; QC conc. 0.40 ng/mL
  4°C temperature stability (24 h) Accuracy: 99.65 ± 2.16%
  Freeze-thaw Accuracy: 99.71 ± 2.06%
  Room temperature stability (24 h) Accuracy: 100.49 ± 2.52%
[2]; QC conc. 4.00 ng/mL
  4°C temperature stability (24 h) Accuracy: 98.98 ± 9.99%
  Freeze-thaw Accuracy: 99.91 ± 6.23%
  Room temperature stability (24 h) Accuracy: 96.29 ± 3.26%
[2]; QC conc. 8.00 ng/mL
  4°C temperature stability (24 h) Accuracy: 101.57 ± 1.29%
  Freeze-thaw Accuracy: 100.22 ± 1.87%
  Room temperature stability (24 h) Accuracy: 97.66 ± 4.54%
